This assay concerns the target T1, recombinant human glucocerebrosidase produced in baculovirus/SF9 system, enzyme in the culture media (Homo sapiens, UniProt P04062).
T1 construct: made in house; host or cells: Spodoptera frugiperda SF9 cells infected with recombinant baculovirus (AcNPV, pAc373/GC)
T1 sequence (P04062 40-536): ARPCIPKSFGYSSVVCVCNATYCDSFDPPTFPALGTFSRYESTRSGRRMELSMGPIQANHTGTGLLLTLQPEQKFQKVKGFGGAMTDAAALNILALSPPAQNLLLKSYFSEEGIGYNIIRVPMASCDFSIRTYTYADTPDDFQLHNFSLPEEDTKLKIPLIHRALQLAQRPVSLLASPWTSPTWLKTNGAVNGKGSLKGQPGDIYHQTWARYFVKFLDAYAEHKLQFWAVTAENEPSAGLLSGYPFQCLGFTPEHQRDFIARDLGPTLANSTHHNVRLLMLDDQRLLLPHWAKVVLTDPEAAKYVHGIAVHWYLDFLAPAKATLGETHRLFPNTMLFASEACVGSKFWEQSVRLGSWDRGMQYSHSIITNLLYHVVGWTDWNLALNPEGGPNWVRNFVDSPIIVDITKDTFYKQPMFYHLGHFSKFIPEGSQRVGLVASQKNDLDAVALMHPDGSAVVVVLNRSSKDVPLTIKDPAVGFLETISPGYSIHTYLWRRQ
Kind of assay: Km determination, β-glucosidase activity with 4MUGP. The class given is biochemical. The conditions noted are these: pH 5.9, 100 mM potassium phosphate, 0.15% Triton X-100, 0.125% sodium taurocholate. As for the experimental part: Glucocerebrosidase assays: For pH profile and inhibition studies, glucocerebrosidase activity was measured using 100 mM potassium phosphate buffer containing 0.15% Triton X-100, 2.5 μl of β-D-[1-^14 C] glucocerebroside (7.5 mg/ml in sodium taurocholate at 50 mg/ml), and the sample in the total volume of 200 ul. Preincubations with conduritol-B-epoxide were for 30 min at 37° C. […] Purification of recombinant glucocerebrosidase was also monitored using 4MUGP.

In general, Km refers to the concentration of substrate that gives half-maximal velocity.

In the case of `Cc1cc(=O)oc2cc(O[C@@H]3O[C@H](CO)[C@@H](O)[C@H](O)[C@H]3O)ccc12` [4MUGP, 4-methylumbellifery-β-D-glucopyranoside], the Km was found to be 3.3 mM.
